# Experiments:
# [1] = system: Cold Restraint Ulcers (CRU); test: Cold restraint ulcer (CRU) model; assay type: in vivo, rats
# Procedure: Method: Adult rats of either sex, weighing 150-175 Gms were fasted for 24 hours with free access to water. The test drugs were administered 45 minutes before immobilizing the animals. The rats were immobilized in the restraint cage at 4° C. in BOD incubator for 2 hrs and were sacrificed immediately after the restraint period. (According to the method of Senay and Levine 1967). The abdomen was cut opened; stomach was taken out and incised along the greater curvature to observe the gastric lesions with the help of Magnascope (5× magnification).
# (§1) The following arbitrary scoring system was used to grade the severity and intensity of the lesions. • 1. Shedding of epithelium=10 • 2. Petechial and frank hemorrhages=20 • 3. One or two ulcers=30 • 4. More than two ulcers=40 • 5. Perforated ulcers=50 The presence of any of these lesions was considered as a positive ulcerogenic response which has been shown as percentage of rats showing gastric lesions.
# (§2) The severity of ulcers is expressed in terms of ulcer index, which is the mean score of gastric lesions of all the rats in a group which is defined as: • Ulcer Index (U. I.)=Us+Up×10^−1 • Where Us=Mean severity of ulcer score and Up-Percentage of animals with Ulcer incidences.
# (§3) The percentage protection is calculated as follows: • Percentage protection ═(C-T/C)×100. • Wherein • C=Number of animals showing ulcer response in control group and • T=Number of animals showing ulcer response in test group.
# Histamine induced ulcer = Histamine induced ulcer model; assay type: in vivo, guinea pig; settings: HF2 50 mg/Kg p.o., Omeprazole 10 mg/kg p.o.
# Procedure: Method: Animals were fasted for 24 hours with access to water. The drug was given orally 1 hour prior to the histamine administration. Histamine was administered in a dose of 0.25 mg/Kg, i.m. at 30 minutes interval-for 7 times and it induced 100% duodenal ulceration in guinea pig (According to the method of Watt and Eagleton 1964)^4. The animals were sacrificed after half an hour of last injection under ether anesthesia. The stomach along with duodenum was removed washed thoroughly and examined for the lesions and ulcer index with protection index was calculated. The effect of the herbal composition “HF2” and the standard drug “Omeprazole” against Histamine induced ulcer model is given in Table 4.
# [2] = system: aspirin induced gastric ulcer; test: Aspirin induced gastric ulcer model; assay type: in vivo, rats
# Text: as §1, §2, §3
# Method: Gastric ulceration was induced by aspirin according to the method of Djahanguiri (1969). Aspirin (150 mg/Kg.) was administered per orally as a suspension in gum-acacia and the animal was sacrificed 5 hr. after the aspirin treatment and the ulcer index with protection index were calculated.
# [3] = HF 2 100 mg/Kg p.o., Omeprazole 10 mg/Kg p.o.
smiles,measurement,setting,value
COc1ccc2[nH]c([S+]([O-])Cc3ncc(C)c(OC)c3C)nc2c1 (stereo not shown) [Omeprazole],protection against cold restraint ulcer model,[1],54.03%
same,Percentage of ulcer incidence,"[1]; HF2 50 mg/Kg p.o., Omeprazole 10 mg/Kg p.o.",50%
same,Ulcer severity (type of lesions) score 10 (No. of rats showing lesions/No. of rats tested),"[1]; score 10 = shedding of epithelium, HF2 50 mg/Kg p.o., Omeprazole 10 mg/Kg p.o., 4° C., 2 hrs restraint",3/10
same,Ulcer severity (type of lesions) score 20 (No. of rats showing lesions/No. of rats tested),"[1]; score 20 = petechial and frank hemorrhages, HF2 50 mg/Kg p.o., Omeprazole 10 mg/Kg p.o.",2/10
same,Percentage of ulcer incidence,Histamine induced ulcer,33.3%
same,Ulcer severity (type of lesions) score 20 (No. Guinea pig showing lesions/No. of Guinea pig tested),Histamine induced ulcer; Histamine 0.25 mg/Kg i.m. × 7,1/3
same,protection against aspirin induced ulcer model,[2],39.41%
same,Ulcer severity (type of lesions) score 20 (No. of rats showing lesions/No. of rats tested),"[2]; Aspirin 150 mg/Kg p.o., HF 2 100 mg/Kg p.o., Omeprazole 10 mg/Kg p.o.",2/6
same,Ulcer severity (type of lesions) score 10 (No. of rats showing lesions/No. of rats tested),"[2]; Aspirin 150 mg/Kg p.o., HF 2 100 mg/Kg p.o., Omeprazole 10 mg/Kg p.o., 5 hr",2/6
same,Mean severity of ulcer score,[2]; [3],10.0
same,Percentage of ulcer incidence,[2]; [3],66.7%
same,Protection index,[2]; [3],39.41
same,Ulcer index,[2]; [3],7.67
